Data on 17 compounds can be found in patent publication US10172868B2, “Substituted quinazolines for inhibiting kinase activity” (NeuPharma, Inc., priority 2013, dated 2019).

The target of assay [1] is EGFR (ErbB1) (Homo sapiens (Human), UniProt P00533). The assay can be described thus: Z'-LYTE kinase inhibition assay, EGFR. In kind it is biochemical. To be noted: for inhibition at 0.041 µM: read-out: % inhibition against EGFR (Compound at 0.041 μM). Put shortly: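 Z'-LYTE FRET assay run with 1.1-5.25 ng EGFR and 2 μM peptide substrate in 50 mM HEPES pH 7.5, 10 mM MgCl2, 2 mM MnCl2, 1 mM EGTA, 1 mM DTT, 0.01% BRIJ-35, 1% DMSO. Kinase reaction 60 min at room temperature, then 60 min development; IC50 from 10-point 3-fold titrations.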
Sequence of EGFR (ErbB1) (P00533 25-1210): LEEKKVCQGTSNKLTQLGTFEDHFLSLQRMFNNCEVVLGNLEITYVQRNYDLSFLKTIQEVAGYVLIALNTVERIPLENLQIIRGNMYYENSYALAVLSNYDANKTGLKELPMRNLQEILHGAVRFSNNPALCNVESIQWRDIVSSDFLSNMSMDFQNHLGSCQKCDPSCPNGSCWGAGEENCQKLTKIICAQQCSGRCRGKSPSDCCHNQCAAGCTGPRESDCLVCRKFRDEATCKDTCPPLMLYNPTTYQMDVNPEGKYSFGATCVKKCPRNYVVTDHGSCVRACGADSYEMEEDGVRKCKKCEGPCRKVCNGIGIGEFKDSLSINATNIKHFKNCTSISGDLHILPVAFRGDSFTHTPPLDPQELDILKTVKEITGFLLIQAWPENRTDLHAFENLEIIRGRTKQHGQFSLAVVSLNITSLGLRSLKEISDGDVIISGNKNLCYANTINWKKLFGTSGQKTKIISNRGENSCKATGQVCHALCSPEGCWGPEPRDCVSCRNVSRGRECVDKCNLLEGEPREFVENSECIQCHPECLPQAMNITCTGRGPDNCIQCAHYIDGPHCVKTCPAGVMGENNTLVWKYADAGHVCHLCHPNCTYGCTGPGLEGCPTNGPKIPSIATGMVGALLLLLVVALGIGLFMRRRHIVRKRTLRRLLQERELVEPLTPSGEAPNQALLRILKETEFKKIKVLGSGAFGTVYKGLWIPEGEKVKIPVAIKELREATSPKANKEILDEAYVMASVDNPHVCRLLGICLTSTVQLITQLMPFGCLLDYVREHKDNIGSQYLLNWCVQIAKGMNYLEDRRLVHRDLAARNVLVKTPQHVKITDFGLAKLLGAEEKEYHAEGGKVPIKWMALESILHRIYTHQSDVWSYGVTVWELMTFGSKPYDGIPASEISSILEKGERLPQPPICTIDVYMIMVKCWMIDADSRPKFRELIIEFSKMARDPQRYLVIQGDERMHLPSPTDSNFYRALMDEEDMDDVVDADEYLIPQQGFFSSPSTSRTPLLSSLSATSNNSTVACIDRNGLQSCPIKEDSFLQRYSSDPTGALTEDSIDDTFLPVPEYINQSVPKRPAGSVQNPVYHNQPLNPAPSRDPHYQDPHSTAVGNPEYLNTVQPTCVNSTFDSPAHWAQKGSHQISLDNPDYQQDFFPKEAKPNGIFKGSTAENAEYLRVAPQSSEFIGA

The subject of assay [2] is A431 cells. The experiment in a line: cells. To be noted: Homo sapiens, A-431, 72 h, read-out: IC50 in A431 cells.
In assay [3] the test system is H1975 cells. The experiment in a line: Inhibition of cancer cell growth, MTT assay, H1975. Particulars: Homo sapiens, NCI-H1975, 72 h, read-out: IC50 in H1975 cells.
The target in assay [4] is EGFR (ErbB1) T790M L858R (Homo sapiens (Human), UniProt P00533, L858R/T790M). The experiment in a line: Z'-LYTE kinase inhibition assay, EGFR L858R/T790M. The class given is biochemical. To be noted: for inhibition at 0.0137 µM: read-out: % inhibition against EGFR L858R/T790M (Compound at 0.0137 μM); for IC50: read-out: IC50 against EGFR L858R/T790M. Put shortly:
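Z'-LYTE FRET peptide assay at 1% DMSO, 10-point 3-fold titrations; kinase/peptide mix in 50 mM HEPES pH 6.5, 0.01% BRIJ-35, 10 mM MgCl2, 1 mM EGTA, 0.02% NaN3. Kinase reaction ran 60 min at room temperature, followed by 60 min development and a fluorescence read. IC50 derived from the concentration series.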

A value given as a limit tells only on which side of the number the result lay.

Sequence of EGFR (ErbB1) T790M L858R (P00533 25-1210 T790M/L858R): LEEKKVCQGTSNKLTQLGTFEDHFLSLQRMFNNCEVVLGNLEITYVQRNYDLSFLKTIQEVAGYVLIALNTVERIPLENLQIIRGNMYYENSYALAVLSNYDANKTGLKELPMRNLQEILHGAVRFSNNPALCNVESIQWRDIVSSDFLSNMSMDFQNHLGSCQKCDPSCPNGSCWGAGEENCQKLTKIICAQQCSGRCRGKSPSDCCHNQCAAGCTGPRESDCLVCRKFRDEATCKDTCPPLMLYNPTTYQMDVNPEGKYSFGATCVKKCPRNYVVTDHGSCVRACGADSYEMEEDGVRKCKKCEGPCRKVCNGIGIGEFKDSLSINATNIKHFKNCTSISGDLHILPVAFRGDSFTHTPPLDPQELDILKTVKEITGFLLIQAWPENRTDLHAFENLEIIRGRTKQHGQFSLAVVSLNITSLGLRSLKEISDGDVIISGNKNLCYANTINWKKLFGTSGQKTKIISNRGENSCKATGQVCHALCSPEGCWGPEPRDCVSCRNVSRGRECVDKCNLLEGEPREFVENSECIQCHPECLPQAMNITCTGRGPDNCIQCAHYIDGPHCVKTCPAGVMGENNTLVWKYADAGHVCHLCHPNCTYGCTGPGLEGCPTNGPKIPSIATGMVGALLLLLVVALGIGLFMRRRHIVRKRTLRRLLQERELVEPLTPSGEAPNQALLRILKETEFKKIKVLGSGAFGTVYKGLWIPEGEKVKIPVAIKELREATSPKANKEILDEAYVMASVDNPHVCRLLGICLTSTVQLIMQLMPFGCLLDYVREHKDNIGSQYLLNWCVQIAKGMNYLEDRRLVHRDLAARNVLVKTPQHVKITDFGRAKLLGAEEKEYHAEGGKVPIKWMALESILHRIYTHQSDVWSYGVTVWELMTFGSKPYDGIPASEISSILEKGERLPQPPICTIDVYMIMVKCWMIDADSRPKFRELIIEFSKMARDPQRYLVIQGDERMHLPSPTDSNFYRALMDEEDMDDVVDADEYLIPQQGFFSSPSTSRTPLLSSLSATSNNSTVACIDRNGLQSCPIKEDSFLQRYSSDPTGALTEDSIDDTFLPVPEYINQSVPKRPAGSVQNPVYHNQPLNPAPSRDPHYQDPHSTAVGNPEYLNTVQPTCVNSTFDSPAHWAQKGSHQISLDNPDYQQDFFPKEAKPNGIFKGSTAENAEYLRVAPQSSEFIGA

Turning to `C=CC(=O)Nc1cccc(-c2cccc3cnc(Nc4ccc(N5CCN(C)CC5)cc4Cl)nc23)c1` [Example C043, N-(3-(2-((2-chloro-4-(4-methylpiperazin-1-yl)phenyl)amino)quinazolin-8-yl)phenyl)acrylamide], the inhibition at 0.041 µM in assay [1] was > 50%. Also, the values for the IC50 in assay [2] and in assay [3] were > 0.5 µM and 0.1 to 0.5 µM, respectively. The inhibition at 0.0137 µM in assay [4] is > 50%.

In the case of `C=CC(=O)Nc1cccc(-c2cccc3cnc(Nc4ccc(N5CCN(C)CC5)cc4)nc23)c1F` [Example C045, N-(2-fluoro-3-(2-((4-(4-methylpiperazin-1-yl)phenyl)amino)quinazolin-8-yl)phenyl)acrylamide], the inhibition at 0.041 µM in assay [1] was > 50%. Further, the IC50 in assay [2] was 0.1 to 0.5 µM; in assay [3] it was < 0.1 µM; in assay [4], < 0.1 µM. In addition, in assay [4], the inhibition at 0.0137 µM was > 50%.

On to `C=CC(=O)Nc1cncc(-c2cccc3cnc(Nc4ccc(N5CCN(C)CC5)nc4)nc23)c1` [Example C047, N-(5-(2-((6-(4-methylpiperazin-1-yl)pyridin-3-yl)amino)quinazolin-8-yl)pyridin-3-yl)acrylamide], for which the inhibition at 0.041 µM in assay [1] was > 50%. Further, the IC50 in assay [2] is > 0.5 µM; in assay [3], 0.1 to 0.5 µM. Besides, the inhibition at 0.0137 µM in assay [4] is > 50%.

Regarding `C=CC(=O)Nc1cccc(-c2cccc3cnc(Nc4ccc(N5CCN(C)CC5)nc4)nc23)c1F` [Example C048, N-(2-fluoro-3-(2-((6-(4-methylpiperazin-1-yl)pyridin-3-yl)amino)quinazolin-8-yl)phenyl)acrylamide], the inhibition at 0.041 µM in assay [1] is > 50%. Also, the IC50 is < 0.1 µM in assay [1] (read-out: IC50 against EGFR), > 0.5 µM in assay [2], < 0.1 µM in assay [3] and < 0.1 µM in assay [4]. Moreover, in assay [4], the inhibition at 0.0137 µM is > 50%.

Take `C=CC(=O)Nc1cccc(-c2cccc3cnc(Nc4ccc(N5CCN(C(C)=O)CC5)cc4)nc23)c1F` [Example C049, N-(3-(2-((4-(4-acetylpiperazin-1-yl)phenyl)amino)quinazolin-8-yl)-2-fluorophenyl)acrylamide]: in assay [1], the inhibition at 0.041 µM was > 50%. Also, the results for the IC50 in assay [2], in assay [3] and in assay [4] were > 0.5 µM, 0.1 to 0.5 µM and < 0.1 µM, respectively. Also, the inhibition at 0.0137 µM in assay [4] is > 50%.

With `C=CC(=O)Nc1cccc(-c2cccc3cnc(Nc4ccc(N5CCN(CC(F)F)CC5)cc4)nc23)c1` [Example C056, N-(3-(2-((4-(4-(2,2-difluoroethyl)piperazin-1-yl)phenyl)amino)quinazolin-8-yl)phenyl)acrylamide], the inhibition at 0.041 µM in assay [1] was < 50%. In addition, the figures for the IC50 in assay [2] and in assay [3] were > 0.5 µM and 0.1 to 0.5 µM, respectively. For the same compound, the inhibition at 0.0137 µM in assay [4] was < 50%.

In the case of `C=CC(=O)Nc1cc(-c2cccc3cnc(Nc4ccc(N5CCN(C)CC5)cc4)nc23)ccn1` [Example C057, N-(4-(2-((4-(4-methylpiperazin-1-yl)phenyl)amino)quinazolin-8-yl)pyridin-2-yl)acrylamide], the inhibition at 0.041 µM in assay [1] was > 50%. Also, the IC50 in assay [2] was 0.1 to 0.5 µM; in assay [3], 0.1 to 0.5 µM; in assay [4] it was < 0.1 µM. Further, the inhibition at 0.0137 µM in assay [4] is > 50%.

With `C=CC(=O)Nc1cncc(-c2cccc3cnc(Nc4ccc(N5CCN(CCF)CC5)cc4)nc23)c1` [Example C058, N-(5-(2-((4-(4-(2-fluoroethyl)piperazin-1-yl)phenyl)amino)quinazolin-8-yl)pyridin-3-yl)acrylamide], the inhibition at 0.041 µM in assay [1] is < 50%. In addition, the IC50 is > 0.5 µM in assay [2] and < 0.1 µM in assay [3]. Besides, the inhibition at 0.0137 µM in assay [4] was > 50%.

Turning to `CC(=O)N1CCN(c2ccc(Nc3ncc4cccc(-c5cccc(NC(=O)/C=C/CN(C)C)c5Cl)c4n3)cc2)CC1` [Example C060, (E)-N-(3-(2-((4-(4-acetylpiperazin-1-yl)phenyl)amino)quinazolin-8-yl)-2-chlorophenyl)-4-(dimethylamino)but-2-enamide], the inhibition at 0.041 µM in assay [1] is < 50%. The IC50 in assay [2] was > 0.5 µM; in assay [3], 0.1 to 0.5 µM. Moreover, in assay [4], the inhibition at 0.0137 µM was > 50%.

As to `C=CC(=O)Nc1cccc(-c2cccc3cnc(Nc4cc(F)c(N5CCN(C)CC5)c(F)c4)nc23)c1` [Example C146, N-(3-(2-((3,5-difluoro-4-(4-methylpiperazin-1-yl)phenyl)amino)quinazolin-8-yl)phenyl)acrylamide], in assay [1], the inhibition at 0.041 µM was < 50%. For the same compound, the IC50 in assay [3] is < 0.1 µM. In assay [4], the inhibition at 0.0137 µM is > 50%.

For `C=CC(=O)Nc1cccc(-c2cccc3cnc(Nc4c(F)cc(N5CCN(C)CC5)cc4F)nc23)c1` [Example C148, N-(3-(2-((2,6-difluoro-4-(4-methylpiperazin-1-yl)phenyl)amino)quinazolin-8-yl)phenyl)acrylamide], the inhibition at 0.041 µM in assay [1] was < 50%. Also, the IC50 in assay [3] is < 0.1 µM. In addition, the inhibition at 0.0137 µM in assay [4] is < 50%.

As to `C=CC(=O)Nc1cccc(-c2cccc3cnc(Nc4ccc(N5CCN(CC(C)(C)O)CC5)cc4F)nc23)c1` [Example C149, N-(3-(2-((2-fluoro-4-(4-(2-hydroxy-2-methylpropyl)piperazin-1-yl)phenyl)amino)quinazolin-8-yl)phenyl)acrylamide], the inhibition at 0.041 µM in assay [1] is < 50%. The IC50 in assay [3] was < 0.1 µM. In assay [4], the inhibition at 0.0137 µM is < 50%.

As to `C=CC(=O)Nc1cccc(-c2cccc3cnc(Nc4ccc(N5CCN(CC(N)=O)CC5)cc4)nc23)c1` [Example C150, N-(3-(2-((4-(4-(2-amino-2-oxoethyl)piperazin-1-yl)phenyl)amino)quinazolin-8-yl)phenyl)acrylamide], the inhibition at 0.041 µM in assay [1] was < 50%. Besides, in assay [3], the IC50 is < 0.1 µM. Further, the inhibition at 0.0137 µM in assay [4] was < 50%.

For the compound `C=CC(=O)Nc1cccc(-c2cccc3cnc(Nc4ccc(N5CCN(CCOC)CC5)cc4F)nc23)c1` [Example C153, N-(3-(2-((2-fluoro-4-(4-(2-methoxyethyl)piperazin-1-yl)phenyl)amino)quinazolin-8-yl)phenyl)acrylamide], in assay [1], the inhibition at 0.041 µM is < 50%. For the same compound, the IC50 in assay [3] was < 0.1 µM. For the same compound, the inhibition at 0.0137 µM in assay [4] is < 50%.

In the case of `C=CC(=O)Nc1cccc(-c2cccc3cnc(Nc4ccc(N5CCN(CC(N)=O)CC5)cc4F)nc23)c1` [Example C154, N-(3-(2-((4-(4-(2-amino-2-oxoethyl)piperazin-1-yl)-2-fluorophenyl)amino)quinazolin-8-yl)phenyl)acrylamide], the inhibition at 0.041 µM in assay [1] was < 50%. Moreover, in assay [3], the IC50 lay within 0.1 to 0.5 µM. Besides, the inhibition at 0.0137 µM in assay [4] was < 50%.

With `C=CC(=O)Nc1cccc(-c2cccc3cnc(Nc4ccc(N5CCN(CCOC)CC5)c(F)c4)nc23)c1` [Example C155, N-(3-(2-((3-fluoro-4-(4-(2-methoxyethyl)piperazin-1-yl)phenyl)amino)quinazolin-8-yl)phenyl)acrylamide], in assay [1], the inhibition at 0.041 µM was < 50%. Also, in assay [3], the IC50 was < 0.1 µM. In addition, the inhibition at 0.0137 µM in assay [4] was > 50%.

With `C=CC(=O)Nc1cccc(-c2cccc3cnc(Nc4ccc(N5CCN(CC(N)=O)CC5)c(F)c4)nc23)c1` [Example C164, N-(3-(2-((4-(4-(2-amino-2-oxoethyl)piperazin-1-yl)-3-fluorophenyl)amino)quinazolin-8-yl)phenyl)acrylamide], the inhibition at 0.041 µM in assay [1] was < 50%. The IC50 in assay [3] lay within 0.1 to 0.5 µM. Besides, in assay [4], the inhibition at 0.0137 µM was < 50%.
